The results in this text go back to US8293465B2, “Method for the detection of human immunodeficiency virus envelope (HIV) glycoprotein utilizing carbohydrate binding module (CBM) 20 or 21” (priority 2009, dated 2012).

Experiment [1] deals with T1, RoSBD binding to HIV Ag & Ab positive panel (Rhizopus oryzae, UniProt P07683).
T1 construct: made in house; host or cells: E. coli (pET23a)
The experiment in a line: Competition of HIV-RoSBD binding, ELISA on RoSBD coated plate. To be noted: 10 mM competitor, FIG. 6A. On the procedure: (§1) Ten millimolar maltoheptaose (G7 glycan) and β-cyclodextrin (βCD) (Sigma-Aldrich, St. Louis, Mo.) were dissolved in PBS plus 5% BSA and mixed with the same volume of HIV Ag & Ab positive panel at 37° C. for 1 hr. After adding the mixture to RoSBD coated plate (100 nM in 0.05 M Tris-Hcl, pH 8) or AnSBD coated plate (100 nM in 0.05 M sodium bicarbonate buffer, pH 9.5) at 37° C. for 1 hr, 100 μL HRP coupled HIV1 recombinant gp120 antigen conjugate (0.05 μg/mL) was used for detection.
(§2) HIV Ag & Ab positive panel was separately mixed with the same volume of 500 nM human IgG1 secondary antibody, 2G12 monoclonal antibody, and 250 nM HIV1 gp140 antigen at 37° C. for 1 hr. After adding the mixture to (a) RoSBD coated (100 nM in 0.05 M Tris-Hcl, pH 8) and (b) AnSBD coated plate (100 nM in 0.05 M sodium bicarbonate buffer, pH 9.5) individually at 37° C. for 1 hr, 100 μL HRP coupled HIV1 recombinant gp120 antigen conjugate (0.05 μg/mL) was used for detection.
On the technique in general: In an ELISA, binding on a coated surface is turned into a signal by an enzyme label.

For experiment [2], the target named is T2, AnSBD binding to HIV Ag & Ab positive panel (Aspergillus niger, UniProt P69328).
T2 construct: made in house; host or cells: E. coli (pET15b, printed 'pET15Bb')
Conditions: 10 mM competitor; AnSBD coated plate; FIG. 6B. On the procedure:
as §1, §2

For experiment [3], the system named is HIV Ag & Ab positive panel (possibly native HIV gp120 antigen glycoprotein). The experiment in a line: HIV-RoSBD binding analysis, sandwich ELISA on SBD coated plates. On the procedure:
At first 100 μL of 100 nM AnSBD/RoSBD were coated on individual well of a 96-well plate (Greiner-Bio One GmbH, Frickenhausen, Germany) in sodium bicarbonate buffer (pH 9.5)/Tris-HCl buffer (pH 8) via 16-hr incubation at 4° C. The plate was washed with PBST [10 mM Phosphate Buffered Saline (pH 7.0) plus 0.05% Tween-20], then 200 μL blocking buffer [0.01 M Phosphate Buffered Saline (pH 7.0) plus 5% BSA] was added to each well and incubated at 37° C. for 2 hr. The blocking buffer was removed and the plate was dried at 25° C. for 1 hr. […] To test the specificity of the SBD binding to HIV, HCV test sample and HCV recombinant antigen (Core+NS3+NS5)-HRP conjugate (0.33 μg/mL) were analyzed following the same protocol in parallel. Finally, the plates were developed by adding 100 μL 3,3′,5,5′-tetramethylbenzidibe (TMB) at 37° C. for […] The absorbance was measured at 450 nm in ELISA reader after the reaction was stopped by addition of 100 μL 2 N H2SO4 in each well. These absorbance values were compiled as a statistical value (Cut off value; COV) and described in terms of cut off index (COI) value. The COV was calculated as the OD value of negative control (Normal Human Serum) plus 0.1 (COV=NC+0.1). The COI value was calculated as the OD value of test sample divided by COV. […]

Experiment [4] in a line: Glycan array screening of RoSBD (CFG Core H, version 3.1). The format is binding. To be noted: among 377 glycans; FIG. 1A. On the procedure: RoSBD was produced in E. coli system using pET23a expression vector and purified using amylose resin as previously described. Glycan microarray analyses were conducted by the Consortium for Functional Glycomics, Core H facility. The array contained a total of 377 different natural and synthetic glycans and version 3.1 was used for the analyses reported here. Briefly, RoSBD was diluted to […] in sodium acetate binding buffer (50 mM sodium acetate pH 5.5, 1% BSA and 0.05% Tween-20). Seventy microliters was applied to the printed surface of the array, coverslipped, and incubated at room temperature in a humidified chamber away from light for 1 hr. After the incubation, the coverslip was removed and rinsed four times in TSM buffer [50 mM Tris-HCI (pH 7.5), 10 mM MgCl2, and 0.5 M sucrose] and four times in TSM buffer. Seventy microliters of Anti-RoSBD monoclonal antibody, diluted to 1:200 in PBS binding buffer, was applied to the printed surface of the microarray and incubated in a humidified chamber for 1 hr. Washes were performed as above. To detect binding, the secondary antibody incubation was performed with Alexa488-labeled goat anti-mouse IgG at […] in PBS buffer for one hour in a humidified chamber, followed by wash steps. The binding image was read in a Perkin-Elmer Microarray XL4000 scanner and analyzed using Imagene (V.6) image analysis software. […]

`OC[C@H]1O[C@@H]2O[C@H]3[C@H](O)[C@@H](O)[C@@H](O[C@H]4[C@H](O)[C@@H](O)[C@@H](O[C@H]5[C@H](O)[C@@H](O)[C@@H](O[C@H]6[C@H](O)[C@@H](O)[C@@H](O[C@H]7[C@H](O)[C@@H](O)[C@@H](O[C@H]8[C@H](O)[C@@H](O)[C@@H](O[C@H]1[C@H](O)[C@H]2O)O[C@@H]8CO)O[C@@H]7CO)O[C@@H]6CO)O[C@@H]5CO)O[C@@H]4CO)O[C@@H]3CO` [β-cyclodextrin]: the competitive inhibition rate in experiment [1] amounted to 23.1%; in experiment [2], 14.3%.
On the same counts, the results for maltoheptaose are 24.4% and 45.9%.

B1: RoSBD: starch binding domain, CBM family 21, derived from Rhizopus oryzae glucoamylase, produced in E. coli (protein)
chain: ASIPSSASVQLDSYNYDGSTFSGKIYVKNIAYSKKVTVIYADGSDNWNNNGNTIAASYSAPISGSNYEYWTFSASINGIKEFYIKYEVSGKTYYDNNNSANYQVST
In the case of B1, the “specificity of binding, HIV panel versus Anti-HCV mixed titer performance panel” value in experiment [3] (Anti-HCV panel PHV205-24 in parallel, P<0.0001, FIG. 4B) is “specific”. In addition, the “maximal COI value of binding” value in experiment [3] (HIV Ag & Ab positive panel #9144532, COI > 1 is positive, FIG. 4A) amounted to 2.298. In experiment [4], the “glycan recognition (interaction signal on glycan array)” value is reported as “only Manα(1,2)Manα(1,2)Manα(1,2)Manα(1,3) (No. 187) showed evident interaction signal”.
